# Results from patent publication US8846710B2, “Method of preferentially inducing the biosynthesis of interferon” (3M Innovative Properties Company, priority 2005, dated 2014).
# Legend:
# interferon (α) (IFN-α) = assay: Cytokine induction in human cells: IFN-α secreted by PBMC into culture media (ELISA); format: cell-based; details: for Maximal Response IFN / Minimum Effective Concentration IFN / minimal effective concentration: human PBMC; for Maximal Response IFN / Minimum Effective Concentration IFN: median where tested in more than one experiment; for minimal effective concentration: lowest tested concentration inducing IFN-α over usually 20 pg/mL, median where more than one experiment, read-out: Minimum Effective Concentration (μM) IFN; for Maximal Response (pg/mL) IFN: maximal response in dose response curve, median
# Summary of the method: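 Human donor PBMC, 2×10^6 cells/mL final in RPMI complete, treated 18–24 h at 37 °C, 5% CO2 with 3-fold dilutions (usually 30-0.014 μM), DMSO ≤1%. Supernatant IFN-α by multi-subtype sandwich ELISA, background-subtracted and reference-adjusted; minimum effective concentration = lowest concentration exceeding usually 20 pg/mL.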
# [1] = test system: tumor necrosis factor (α) (TNF-α); assay: Cytokine induction in human cells: TNF-α secreted by PBMC into culture media (ORIGEN M-Series immunoassay); format: cell-based; set-up: key to Maximal Response (pg/mL) TNF / Maximal Response TNF: If any negative values result from background subtraction, the reading is reported as “*”, and is noted as not reliably detectable; details: for Minimum Effective Concentration TNF / Maximal Response TNF / minimal effective concentration: human PBMC; for Minimum Effective Concentration TNF: median where tested in more than one experiment; for Maximal Response TNF / Maximal Response (pg/mL) TNF: median; for minimal effective concentration / Maximal Response (pg/mL) TNF: Table 10; for minimal effective concentration: lowest tested concentration inducing TNF-α over usually 40 pg/mL, median where more than one experiment, read-out: Minimum Effective Concentration (μM) TNF; for Maximal Response (pg/mL) TNF: maximal response in dose response curve, * = below experimental background level
# Summary of the method: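 Human donor PBMC (final 2×10^6 cells/mL) were incubated 18 to 24 hours at 37° C with compound, usually 30-0.014 μM in 3-fold steps, ≤1% DMSO. Supernatant TNF-α was measured by ORIGEN immunoassay, background-subtracted and reference-adjusted; minimum effective concentration was the lowest concentration exceeding a fixed cytokine threshold.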
# [2] = Table 11, * = TNF below experimental background of 40 pg/mL
# [3] = Table 10, * = below experimental background level
Compound,Maximal Response IFN (interferon (α) (IFN-α); Table 11),Minimum Effective Concentration IFN (interferon (α) (IFN-α); Table 11),Minimum Effective Concentration TNF ([1]; Table 11),"Maximal Response TNF [1, 2]",other results
"CC(C)[C@H](N)C(=O)OCc1nc2c(N)nc3ccccc3c2n1CC(C)(C)O [Example 636, [4-Amino-1-(2-hydroxy-2-methylpropyl)-1H-imidazo[4,5-c]quinolin-2-yl]methyl L-valinate]",,,,,melting point: 190 to 192 °C
"CC(=O)OCc1nc2c(N)nc3ccccc3c2n1CC(C)(C)O [Example 635, [4-Amino-1-(2-hydroxy-2-methylpropyl)-1H-imidazo[4,5-c]quinolin-2-yl]methyl acetate]",,,,,melting point: 203 to 205 °C
"CC(C)(O)Cn1c(CO)nc2c(N)nc3cc(OCc4cscn4)ccc3c21 [Example 187, 1-[4-Amino-2-hydroxymethyl-7-(thiazol-4-ylmethoxy)-1H-imidazo[4,5-c]quinolin-1-yl]-2-methylpropan-2-ol]",,,,,melting point: 260 to 262 °C
"CC(=O)OCCc1nc2c(N)nc3ccccc3c2n1CC(C)C [Example 634, 2-(4-Amino-1-isobutyl-1H-imidazo[4,5-c]quinolin-2-yl)ethyl acetate]",,,,,melting point: 187 to 189 °C
CCc1nc2c(N)nc3ccccc3c2n1CCCCCS(C)(=O)=O [Analog 74],1062 pg/mL,0.12 µM,1.11 µM,1545 pg/mL,
CCOCc1nc2c(N)nc3cc(-c4cccnc4)ccc3c2n1CCCCNC(=O)C1CCCC1 [Analog 35],,,,,minimal effective concentration (interferon (α) (IFN-α); Table 10): 0.04 µM; Maximal Response (pg/mL) IFN (interferon (α) (IFN-α); [3]): 969 pg/mL; minimal effective concentration [1]: 0.37 µM; Maximal Response (pg/mL) TNF [1]: 1366 pg/mL
Nc1nc2cc(-c3cccnc3)ccc2c2c1nc(CO)n2CCCCNC(=O)C1CCCC1 [Example 198],,,,,Maximal Response (pg/mL) IFN (interferon (α) (IFN-α); [3]): 2745 pg/mL; Maximal Response (pg/mL) TNF [1]: 410 pg/mL
COCCc1nc2c(N)nc3ccccc3c2n1CC(C)(C)CNC(=O)c1ccccc1 [Analog 96],2133 pg/mL,0.014 µM,0.014 µM,1812 pg/mL,
"CC(C)(Cn1c(CCO)nc2c(N)nc3ccccc3c21)NS(C)(=O)=O [Example 6, N-{2-[4-Amino-2-(2-hydroxyethyl)-1H-imidazo[4,5-c]quinolin-1-yl]-1,1-dimethylethyl}methanesulfonamide]",6527 pg/mL,,,*,"Maximal Response (pg/mL) IFN (interferon (α) (IFN-α); Table 7, background-subtracted, reference-adjusted): 7521 pg/mL"
"Cc1ccc(S(=O)(=O)NCCCn2c(CCO)nc3c(N)nc4ccccc4c32)cc1 [Example 1, N-{3-[4-Amino-2-(2-hydroxyethyl)-1H-imidazo[4,5-c]quinolin-1-yl]propyl}-4-methylbenzenesulfonamide]",1072 pg/mL,,,143 pg/mL,
CCCc1nc2c(N)nc3ccccc3c2n1CC(C)(C)NC(=O)NC(C)C [Analog 107],1428 pg/mL,1.11 µM,3.33 µM,6363 pg/mL,
CCCCNC(=O)NCCCn1c(CCOC)nc2c(N)nc3ccccc3c21 [Analog 98],5915 pg/mL,0.014 µM,0.04 µM,6169 pg/mL,
"CC(C)C(=O)NCCCn1c(CCO)nc2c(N)nc3ccccc3c21 [Example 141, N-{3-[4-Amino-2-(2-hydroxyethyl)-1H-imidazo[4,5-c]quinolin-1-yl]propyl}-2-methylpropionamide]",14046 pg/mL,,,243 pg/mL,
CCOCc1nc2c(N)nc3cc(-c4cncc(CO)c4)ccc3c2n1CC1CCN(C(=O)C(C)C)CC1 [Analog 44],,,,,minimal effective concentration (interferon (α) (IFN-α); Table 10): 0.04 µM; Maximal Response (pg/mL) IFN (interferon (α) (IFN-α); [3]): 1382 pg/mL; minimal effective concentration [1]: 1.11 µM; Maximal Response (pg/mL) TNF [1]: 3128 pg/mL
Cc1nc2c(N)nc3ccccc3c2n1CCCNS(C)(=O)=O [Aanalog 58],2778 pg/mL,1.11 µM,30 µM,*,
CCc1nc2c(N)nc3ccccc3c2n1CCCCNC(=O)N1CCOCC1 [Analog 54],4975 pg/mL,0.37 µM,3.33 µM,2570 pg/mL,

Compound,Maximal Response IFN (interferon (α) (IFN-α); Table 11),Minimum Effective Concentration IFN (interferon (α) (IFN-α); Table 11),Minimum Effective Concentration TNF ([1]; Table 11),"Maximal Response TNF [1, 2]",other results
COCCc1nc2c(N)nc3cc(-c4cncc(CO)c4)ccc3c2n1CC(C)(C)O [Analog 16],,,,,minimal effective concentration (interferon (α) (IFN-α); Table 10): 0.014 µM; Maximal Response (pg/mL) IFN (interferon (α) (IFN-α); [3]): 5868 pg/mL; minimal effective concentration [1]: 0.04 µM; Maximal Response (pg/mL) TNF [1]: 16296 pg/mL
CN(CCOCCn1c(CCO)nc2c(N)nc3ccccc3c21)C(=O)C1CCCCC1 [Example 135],2464 pg/mL,3.33 µM,30 µM,146 pg/mL,
"CCOCc1nc2c(N)nc3cccnc3c2n1CC(C)(C)NS(C)(=O)=O [Analog 130, N-[2-(4-amino-2-ethoxoxymethyl-1H-imidazo[4,5-c][1,5]naphthyridin-1-yl)-1,1-dimethylethyl]methanesulfonamide]",,,,,Minimum Effective Concentration IFN (interferon (α) (IFN-α); Table 12): 0.04 µM; Minimum Effective Concentration TNF ([1]; Table 12): 0.37 µM
"CCc1nc2c(N)nc3cccnc3c2n1CC(C)(C)O [Analog 127, 1-(4-amino-2-ethyl-1H-imidazo[4,5-c][1,5]naphthyridin-1-yl)-2-methylpropan-2-ol]",,,,,"Maximal Response IFN (interferon (α) (IFN-α); Table 12): 2150 pg/mL; Maximal Response TNF ([1]; Table 12, * = below the experimental background of 40 pg/mL): 3863 pg/mL"
"CC(C)(Cn1c(CO)nc2c(N)nc3ccccc3c21)NC(=O)C1CCCCC1 [Example 5, N-[2-(4-Amino-2-hydroxymethyl-1H-imidazo[4,5-c]quinolin-1-yl)-1,1-dimethylethyl]cyclohexanecarboxamide]",17274 pg/mL,,,1130 pg/mL,
Cc1ccc(C)c(S(=O)(=O)NCCCCn2c(CCO)nc3c(N)nc4ccccc4c32)c1 [Example 36],3316 pg/mL,10 µM,>30 µM,*,
CCc1nc2c(N)nc3cc(-c4cccnc4)ccc3c2n1CC1CCN(C(=O)C(C)C)CC1 [Analog 19],,,,,minimal effective concentration (interferon (α) (IFN-α); Table 10): 0.12 µM; Maximal Response (pg/mL) IFN (interferon (α) (IFN-α); [3]): 1686 pg/mL; minimal effective concentration [1]: 1.11 µM; Maximal Response (pg/mL) TNF [1]: 619 pg/mL
CCCNC(=O)NCCCCn1c(COCC)nc2c(N)nc3cc(-c4cccnc4)ccc3c21 [Analog 29],,,,,minimal effective concentration (interferon (α) (IFN-α); Table 10): 0.04 µM; Maximal Response (pg/mL) IFN (interferon (α) (IFN-α); [3]): 936 pg/mL; minimal effective concentration [1]: 1.11 µM; Maximal Response (pg/mL) TNF [1]: 1059 pg/mL
CCCc1nc2c(N)nc3ccccc3c2n1CCCCCS(C)(=O)=O [Analog 75],828 pg/mL,0.12 µM,1.11 µM,848 pg/mL,
CC(C)C(=O)NCCCCn1c(CO)nc2c(N)nc3cc(-c4cccnc4)ccc3c21 [Example 199],,,,,Maximal Response (pg/mL) IFN (interferon (α) (IFN-α); [3]): 5880 pg/mL; Maximal Response (pg/mL) TNF [1]: 217 pg/mL
CCOCc1nc2c(N)nc3ccccc3c2n1CCCCNC(=O)N1CCOCC1 [Analog 56],3433 pg/mL,0.12 µM,1.11 µM,1580 pg/mL,
CCOCc1nc2c(N)nc3ccccc3c2n1CC(C)(C)NC(=O)NC(C)C [Analog 108],966 pg/mL,0.37 µM,1.11 µM,10587 pg/mL,
CCOCc1nc2c(N)nc3cc(-c4cncc(CO)c4)ccc3c2n1CC(C)C [Analog 28],,,,,minimal effective concentration (interferon (α) (IFN-α); Table 10): 0.04 µM; Maximal Response (pg/mL) IFN (interferon (α) (IFN-α); [3]): 1263 pg/mL; minimal effective concentration [1]: 0.37 µM; Maximal Response (pg/mL) TNF [1]: 3885 pg/mL
CCCc1nc2c(N)nc3ccccc3c2n1CCCCNC(=O)N1CCOCC1 [Analog 55],11255 pg/mL,0.12 µM,1.11 µM,1298 pg/mL,
"CCOCc1nc2c(N)nc3cc(-c4cccnc4)ccc3c2n1CC(C)(C)O [Analog 10, 1-(4-amino-2-ethoxymethyl-7-pyridin-3-yl-1H-imidazo[4,5-c]quinolin-1-yl)-2-methylpropan-2-ol]",,,,,"Maximal Response (pg/mL) IFN (interferon (α) (IFN-α); Table 9, background-subtracted, reference-adjusted): 840 pg/mL; Maximal Response (pg/mL) IFN (interferon (α) (IFN-α); [3]): 840 pg/mL; Maximal Response (pg/mL) TNF [1]: 7867 pg/mL"
